Test results published in patent publication US20170057955A1, “Pyridopyrimidinone Compounds for Modulating the Catalytic Activity of Histone Lysine Demethylases (KDMs)” (Dong-A Socio Holdings Co., Ltd., priority 2015, published 2017).

Molecular target: T1, Recombinant human JARID1B/KDM5B (Homo sapiens, UniProt Q9UGL1)
T1 construct: purchased Active Motif 31432; host or cells: Sf9 insect cells
Assay: LANCE Ultra TR-FRET JARID1B (KDM5B) demethylase inhibition assay
Assay type: biochemical
Conditions: 0.1 uM of test-compounds, FLAG-JARID1B, 500 nM biotinylated H3K4me3 peptide substrate, 30 min at room temperature
Outline: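 FLAG-tagged JARID1B from Sf9 cells, pre-incubated 5 min with 0.1 uM compound (1% DMSO), then 500 nM biotinylated H3K4me3 peptide, 500 uM 2-OG, 25 uM Fe(II), 2 mM ascorbate in pH 7.5 Hepes buffer. After 30 min at room temperature, H3K4me2/1 product detected by TR-FRET (665/590 nm ratio).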

T1 sequence (Q9UGL1 whole entry): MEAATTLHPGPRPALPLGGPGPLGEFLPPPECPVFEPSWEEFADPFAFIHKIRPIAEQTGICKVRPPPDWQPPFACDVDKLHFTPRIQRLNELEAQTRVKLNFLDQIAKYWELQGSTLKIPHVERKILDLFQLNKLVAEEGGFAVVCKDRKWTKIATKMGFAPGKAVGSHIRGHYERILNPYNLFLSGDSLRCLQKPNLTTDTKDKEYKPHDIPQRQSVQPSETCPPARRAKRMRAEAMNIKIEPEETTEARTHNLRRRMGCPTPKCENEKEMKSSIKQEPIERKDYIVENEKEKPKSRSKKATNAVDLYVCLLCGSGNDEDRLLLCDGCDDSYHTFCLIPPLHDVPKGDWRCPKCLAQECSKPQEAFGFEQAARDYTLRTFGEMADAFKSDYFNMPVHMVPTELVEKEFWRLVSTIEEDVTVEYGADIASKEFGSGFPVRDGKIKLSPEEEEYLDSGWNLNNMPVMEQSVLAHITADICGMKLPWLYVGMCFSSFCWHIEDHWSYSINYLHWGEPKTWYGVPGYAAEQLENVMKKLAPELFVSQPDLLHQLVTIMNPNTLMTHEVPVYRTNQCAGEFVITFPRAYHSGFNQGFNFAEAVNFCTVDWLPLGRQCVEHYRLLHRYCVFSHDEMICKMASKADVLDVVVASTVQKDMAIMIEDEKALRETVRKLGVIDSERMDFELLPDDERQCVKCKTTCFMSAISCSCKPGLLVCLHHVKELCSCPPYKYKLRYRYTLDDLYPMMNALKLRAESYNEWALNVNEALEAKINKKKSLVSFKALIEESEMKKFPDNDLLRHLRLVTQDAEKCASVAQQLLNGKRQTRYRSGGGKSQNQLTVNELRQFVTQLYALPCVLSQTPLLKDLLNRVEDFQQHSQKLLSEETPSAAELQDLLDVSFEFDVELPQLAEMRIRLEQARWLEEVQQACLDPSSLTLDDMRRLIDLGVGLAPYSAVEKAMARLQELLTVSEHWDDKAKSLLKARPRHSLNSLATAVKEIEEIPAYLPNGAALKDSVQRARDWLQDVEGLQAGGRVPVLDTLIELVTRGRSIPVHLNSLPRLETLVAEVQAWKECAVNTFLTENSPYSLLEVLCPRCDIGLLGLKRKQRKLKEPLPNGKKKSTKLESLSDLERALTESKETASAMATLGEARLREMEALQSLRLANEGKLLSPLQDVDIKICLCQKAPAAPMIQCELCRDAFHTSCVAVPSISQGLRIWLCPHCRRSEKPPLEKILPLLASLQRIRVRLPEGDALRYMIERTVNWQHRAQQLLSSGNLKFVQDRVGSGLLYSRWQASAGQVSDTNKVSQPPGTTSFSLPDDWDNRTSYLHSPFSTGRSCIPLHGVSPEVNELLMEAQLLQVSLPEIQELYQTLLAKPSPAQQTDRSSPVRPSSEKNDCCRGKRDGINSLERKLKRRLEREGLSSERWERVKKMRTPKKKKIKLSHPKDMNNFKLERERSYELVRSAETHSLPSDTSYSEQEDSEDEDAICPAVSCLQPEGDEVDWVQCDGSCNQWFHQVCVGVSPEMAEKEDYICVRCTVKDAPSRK

Structure (SMILES)	inhibition at 0.1 µM
O=c1[nH]c(COc2ccc(F)c(Cl)c2)nc2c(-c3csc(NCCCO)n3)nccc12 [Compound 90, 2-((3-chloro-4-fluorophenoxy)methyl)-8-(2-((3-hydroxypropyl)amino)thiazol-4-yl)pyrido[3,4-d]pyrimidin-4(3H)-one]	≥ 50%
CN(C)CCCNc1nc(-c2nccc3c(=O)[nH]c(COc4ccc(F)c(Cl)c4)nc23)cs1 [Compound 91, 2-((3-chloro-4-fluorophenoxy)methyl)-8-(2-((3-(dimethylamino)propyl)amino)thiazol-4-yl)pyrido[3,4-d]pyrimidin-4(3H)-one]	≥ 50%
CN1CCCC1CCNc1nc(-c2nccc3c(=O)[nH]c(COc4ccc(F)c(Cl)c4)nc23)cs1 (stereo not drawn) [Compound 92, 2-((3-chloro-4-fluorophenoxy)methyl)-8-(2-((2-(1-methylpyrrolidin-2-yl)ethyl)amino)thiazol-4-yl)pyrido[3,4-d]pyrimidin-4(3H)-one]	≥ 50%
O=c1[nH]c(COc2ccc(F)c(Cl)c2)nc2c(-c3csc(NC4CCNCC4)n3)nccc12 [Compound 93, 2-((3-chloro-4-fluorophenoxy)methyl)-8-(2-(piperidin-4-ylamino)thiazol-4-yl)pyrido[3,4-d]pyrimidin-4(3H)-one]	≥ 50%
CN1CCC(Nc2nc(-c3nccc4c(=O)[nH]c(COc5ccc(F)c(Cl)c5)nc34)cs2)CC1 [Compound 94, 2-((3-chloro-4-fluorophenoxy)methyl)-8-(2-((1-methylpiperidin-4-yl)amino)thiazol-4-yl)pyrido[3,4-d]pyrimidin-4(3H)-one]	≥ 50%
CCC(O)CNc1nc(-c2nccc3c(=O)[nH]c(COc4ccc(F)c(Cl)c4)nc23)cs1 (stereo not drawn) [Compound 95, 2-((3-chloro-4-fluorophenoxy)methyl)-8-(2-((2-hydroxybutyl)amino)thiazol-4-yl)pyrido[3,4-d]pyrimidin-4(3H)-one]	20 to 50%
O=c1[nH]c(COc2ccc(F)c(Cl)c2)nc2c(-c3csc(NCC4CCN(Cc5ccccc5)CC4)n3)nccc12 [Compound 96, 8-(2-(((1-benzylpiperidin-4-yl)methyl)amino)thiazol-4-yl)-2-((3-chloro-4-fluorophenoxy)methyl) pyrido[3,4-d]pyrimidin-4(3H)-one]	< 20%
CC(C)N1CCC(CNc2nc(-c3nccc4c(=O)[nH]c(COc5ccc(F)c(Cl)c5)nc34)cs2)CC1 [Compound 97, 2-((3-chloro-4-fluorophenoxy)methyl)-8-(2-(((1-isopropylpiperidin-4-yl)methyl)amino)thiazol-4-yl)pyrido[3,4-d]pyrimidin-4(3H)-one]	20 to 50%
O=c1[nH]c(COc2ccc(F)c(Cl)c2)nc2c(-c3csc(NCC4CCN(C5CCCC5)CC4)n3)nccc12 [Compound 98, 2-((3-chloro-4-fluorophenoxy)methyl)-8-(2-(((1-cyclopentylpiperidin-4-yl)methyl)amino)thiazol-4-yl)pyrido[3,4-d]pyrimidin-4(3H)-one]	20 to 50%
O=c1[nH]c(COc2ccc(F)c(Cl)c2)nc2c(-c3csc(NCC4CCNCC4)n3)nccc12 [Compound 99, 2-((3-chloro-4-fluorophenoxy)methyl)-8-(2-((piperidin-4-ylmethyl)amino)thiazol-4-yl)pyrido[3,4-d]pyrimidin-4(3H)-one]	20 to 50%
O=c1[nH]c(COc2ccc(F)c(Cl)c2)nc2c(-c3csc(NCC4CCN(CCO)CC4)n3)nccc12 [Compound 100, 2-((3-chloro-4-fluorophenoxy)methyl)-8-(2-(((1-(2-hydroxyethyl)piperidin-4-yl)methyl)amino)thiazol-4-yl)pyrido[3,4-d]pyrimidin-4(3H)-one]	20 to 50%
COCCN1CCC(CNc2nc(-c3nccc4c(=O)[nH]c(COc5ccc(F)c(Cl)c5)nc34)cs2)CC1 [Compound 101, 2-((3-chloro-4-fluorophenoxy)methyl)-8-(2-(((1-(2-methoxyethyl)piperidin-4-yl)methyl)amino)thiazol-4-yl)pyrido[3,4-d]pyrimidin-4(3H)-one]	20 to 50%
O=c1[nH]c(COc2ccc(F)c(Cl)c2)nc2c(-c3csc(NC4CCN(Cc5ccccc5)CC4)n3)nccc12 [Compound 102, 8-(2-((1-benzylpiperidin-4-yl)amino)thiazol-4-yl)-2-((3-chloro-4-fluorophenoxy)methyl) pyrido[3,4-d]pyrimidin-4(3H)-one]	≥ 50%
Cc1nc(-c2nccc3c(=O)[nH]c(COc4ccc(F)c(Cl)c4)nc23)cs1 [Compound 103, 2-((3-chloro-4-fluorophenoxy)methyl)-8-(2-methylthiazol-4-yl)pyrido[3,4-d]pyrimidin-4(3H)-one]	< 20%
Nc1nc(-c2nccc3c(=O)[nH]c(COc4ccc(F)c(Cl)c4)nc23)cs1 [Compound 104, 8-(2-aminothiazol-4-yl)-2-((3-chloro-4-fluorophenoxy)methyl) pyrido[3,4-d]pyrimidin-4(3H)-one]	20 to 50%
CCN(CC)c1nc(-c2nccc3c(=O)[nH]c(COc4ccc(F)c(Cl)c4)nc23)cs1 [Compound 105, 2-((3-chloro-4-fluorophenoxy)methyl)-8-(2-(diethylamino)thiazol-4-yl)pyrido[3,4-d]pyrimidin-4(3H)-one]	< 20%
O=c1[nH]c(COc2ccc(F)c(Cl)c2)nc2c(-c3cscn3)nccc12 [Compound 106, 2-((3-chloro-4-fluorophenoxy)methyl)-8-(thiazol-4-yl)pyrido[3,4-d]pyrimidin-4(3H)-one]	20 to 50%
O=c1[nH]c(COc2ccc(F)c(Cl)c2)nc2c(-c3csc(NC4CCN(Cc5ccccc5)C4)n3)nccc12 (stereo not drawn) [Compound 107, 8-(2-((1-benzylpyrrolidin-3-yl)amino)thiazol-4-yl)-2-((3-chloro-4-fluorophenoxy)methyl) pyrido[3,4-d]pyrimidin-4(3H)-one]	20 to 50%
O=c1[nH]c(COc2ccc(F)c(Cl)c2)nc2c(-c3csc(NCCc4ccc(Cl)c(Cl)c4)n3)nccc12 [Compound 108, 2-((3-chloro-4-fluorophenoxy)methyl)-8-(2-((3,4-dichlorophenethyl)amino)thiazol-4-yl)pyrido[3,4-d]pyrimidin-4(3H)-one]	< 20%
O=c1[nH]c(COc2ccc(F)c(Cl)c2)nc2c(-c3csc(NCCCc4ccccc4Cl)n3)nccc12 [Compound 109, 2-((3-chloro-4-fluorophenoxy)methyl)-8-(2-((3-(2-chlorophenyl)propyl)amino)thiazol-4-yl)pyrido[3,4-d]pyrimidin-4(3H)-one]	< 20%
O=c1[nH]c(COc2ccc(F)c(Cl)c2)nc2c(-c3csc(NCCc4ccccc4Oc4ccccc4)n3)nccc12 [Compound 110, 2-((3-chloro-4-fluorophenoxy)methyl)-8-(2-((2-phenoxyphenethyl)amino)thiazol-4-yl)pyrido[3,4-d]pyrimidin-4(3H)-one]	< 20%
O=c1[nH]c(COc2ccc(F)c(Cl)c2)nc2c(-c3csc(NCC(O)c4ccncc4)n3)nccc12 (stereo not drawn) [Compound 111, 2-((3-chloro-4-fluorophenoxy)methyl)-8-(2-((2-hydroxy-2-(pyridin-4-yl)ethyl)amino)thiazol-4-yl)pyrido[3,4-d]pyrimidin-4(3H)-one]	20 to 50%
Cc1ccc(CCNc2nc(-c3nccc4c(=O)[nH]c(COc5ccc(F)c(Cl)c5)nc34)cs2)cc1C [Compound 112, 2-((3-chloro-4-fluorophenoxy)methyl)-8-(2-((3,4-dimethylphenethyl)amino)thiazol-4-yl)pyrido[3,4-d]pyrimidin-4(3H)-one]	< 20%
O=c1[nH]c(COc2ccc(F)c(Cl)c2)nc2c(-c3csc(NCC(O)CN4CCNCC4)n3)nccc12 (stereo not drawn) [Compound 113, 2-((3-chloro-4-fluorophenoxy)methyl)-8-(2-((2-hydroxy-3-(piperazin-1-yl)propyl)amino)thiazol-4-yl)pyrido[3,4-d]pyrimidin-4(3H)-one]	≥ 50%
O=c1[nH]c(COc2ccc(F)c(Cl)c2)nc2c(-c3cccc(Cl)n3)nccc12 [Compound 114, 2-((3-chloro-4-fluorophenoxy)methyl)-8-(6-chloropyridin-2-yl)pyrido[3,4-d]pyrimidin-4(3H)-one]	< 20%
CC1CCN(c2cccc(-c3nccc4c(=O)[nH]c(COc5ccc(F)c(Cl)c5)nc34)n2)CC1 [Compound 115, 2-((3-chloro-4-fluorophenoxy)methyl)-8-(6-(4-methylpiperidin-1-yl)pyridin-2-yl)pyrido[3,4-d]pyrimidin-4(3H)-one]	< 20%
O=c1[nH]c(COc2ccc(F)c(Cl)c2)nc2c(-c3cccc(N4CCOCC4)n3)nccc12 [Compound 116, 2-((3-chloro-4-fluorophenoxy)methyl)-8-(6-morpholinopyridin-2-yl)pyrido[3,4-d]pyrimidin-4(3H)-one]	< 20%
CCN(CC)CCCC(C)Nc1nc(-c2nccc3c(=O)[nH]c(COc4ccc(F)c(Cl)c4)nc23)cs1 (stereo not drawn) [Compound 118, 2-((3-chloro-4-fluorophenoxy)methyl)-8-(2-((5-(diethylamino)pentan-2-yl)amino)thiazol-4-yl)pyrido[3,4-d]pyrimidin-4(3H)-one]	20 to 50%
O=c1[nH]c(COc2ccc(F)c(Cl)c2)nc2c(-c3csc(NCCCCN4CCCC4)n3)nccc12 [Compound 119, 2-((3-chloro-4-fluorophenoxy)methyl)-8-(2-((4-(pyrrolidin-1-yl)butyl)amino)thiazol-4-yl)pyrido[3,4-d]pyrimidin-4(3H)-one]	20 to 50%
CC(C)N(CCCCCNc1nc(-c2nccc3c(=O)[nH]c(COc4ccc(F)c(Cl)c4)nc23)cs1)C(C)C [Compound 120, 2-((3-chloro-4-fluorophenoxy)methyl)-8-(2-((5-(diisopropylamino)pentyl)amino)thiazol-4-yl)pyrido[3,4-d]pyrimidin-4(3H)-one]	20 to 50%
